Several values for one entry are separate records, joined by “and”; a condition that tells them apart may be missing. Equal entries are not always repeated. Marks after values point to notes of the source that are not given here.
Experiments:
Escherichia coli IMI2001 [1] = assay: Neutropenic peritonitis/sepsis model in mice, dose response (Example 5); type: in vivo, NMRI mice
Method: The objective of this study was to study the dose response relationship after intravenous (iv) administration of a single dose of SKPA (CBT) in the range of 0.1612 mg/kg. The effect was investigated against resistant E. coli IMI2001 in a neutropenic peritonitis model. Administration of meropenem at a dose of 40 mg/kg was included as a positive control group. The number of colonies in the blood and peritoneal fluid was determined 5 hours after administration. The mouse peritonitis/sepsis model is a well-known model for antimicrobial activity studies as described by N. FrimodtMoller and J. D.
30 female outbred NMRI mice, 2530 grams (Harlan Scandinavia).
Escherichia coli IMI2001 from IMINAMN, Kharkov, Ukraine. Clinical isolate from a human wound from 2003 with multidrug resistance (to ampicillin, ceftazidime, aztreonam, gentamicin, ciprofloxacin).
ASCA in Ringer's acetate, pH 6, 1.2 mg/ml, 6.0 ml. The solution was stored at 4° C. until use. The analyzes of the compositions used for administration were performed at the end of the phase of the study conducted on live animals, and the following results were obtained in these analyzes.
(§1) The introduction of cyclophosphamide to mice. Neutropenia was induced in mice by injection of 0.5 ml of cyclophosphamide solution intraperitoneally 4 days (200 mg/kg) and 1 day (100 mg/kg) before infection.
(§2) Infection of mice. Fresh E. coli IMI2001 colonies obtained overnight in an agar plate and 5% horse blood were suspended and diluted in sterile saline to approximately 2×10^6 CFU/ml. One hour before the start of administration (time point 1 h), mice were intraperitoneally infected with 0.5 ml of a suspension of E. coli in the lateral lower quadrant of the abdomen. Approximately 0.51 hours after the administration, 45 μl of neurofen (20 mg ibuprofen per ml, corresponding to 30 mg/kg) was orally administered to the mice as a painkiller.
The introduction of drugs to mice. Mice were given a single intravenous administration of CBT, meropenem, or excipient into the lateral tail vein for approximately 30 seconds in a volume of 10 ml/kg at time 0 h (see Table 1). The dose determination was based on an average body weight of 30 g. Mice with a body weight of 2832 g were injected with 0.30 ml of solution. Mice weighing 2728 g were injected with 0.25 ml of the solution and mice weighing 32.136 g were injected with 0.35 ml of the solution.
T indicates time relative to administration. The numbers in the columns of the sampling represent the identification numbers of mice. Clinical scoring of mice. Mice were observed during the study and assigned them scores from 0 to 5 depending on their behavior and clinical signs.
The number of colonies was determined in blood and peritoneal fluid for 0 and 5 hours. Mice were anesthetized with CO2+O2 and blood was taken from an axillary incision into Eppendorf tubes coated with ethylene diamine tetraacetic acid (EDTA). Mice were sacrificed immediately after blood sampling, and a total of 2 ml of sterile physiological saline was administered intraperitoneally and a gentle massage of the abdomen was performed until it was opened and the fluid samples were pipetted. Then, each sample was diluted 10 times in physiological saline and drops of 20 μl were applied to blue agar plates. All agar plates were incubated for 1822 hours at 35° C. in air.
Results. The number of colonies was determined at the beginning of administration and 5 hours after administration. Before the calculations, a log 10 transformation of the CFU count was performed.
Dose response curves (data not shown) were calculated in GraphPad Prism using a sigmoid dose response curve (variable angle). […] The maximum effect of CBT, Emax, was determined as the difference in log CFU in the absence of response and at the maximum response. The lack of response was characterized as the number of colonies at a level determined in mice that were injected with vehicle. […]

Escherichia coli IMI2001 [2] = assay: Model of hip (femoral) infection with neutropenia in mice (Example 7); type: in vivo, NMRI mice
Method: Introduction The objective of this study was to study the dose response after intravenous (iv) administration of a single dose of CPR in the range of 0.1612 mg/kg. The effect was investigated against E. coli IMI2001 in a model of femoral infection with neutropenia. Administration of meropenem at a dose of 40 mg/kg was included as a positive control group. The number of colonies in the hips was determined 5 hours after administration. The hip infection model is a well-known model for studies of the antimicrobial effect and tissue penetration, as described by S. Gudmundsson & N. Erlensdottir: Handbook of Animal Models of Infection (1999), ed. by O. Zak & M. A. Sande, Academic Press, San Diego, US, and some other publications. See the review by D. Andes & C. Craig: Animal model pharmacokinetics and pharmacodynamics: a critical review. International Journal of Antimicrobial Agents, 19 (4): 261268.
Materials and methods. 40 female outbred mice NMRI, 2530 grams (Kiev, Ukraine). Escherichia coli IMI2001 from IMINAMN, Kharkov, Ukraine. Clinical isolate from a human wound from […] with multidrug resistance (to ampicillin, ceftazidime, aztreonam, gentamicin, ciprofloxacin).
PPC in Ringer's acetate, pH 6, 1.2 mg/ml, 6.0 ml. The solution was stored at 4° C. until use. The analyzes of the compositions used for administration were performed at the end of the phase of the study conducted on live animals, and the following results were obtained in these analyzes.
as §1
Infection of mice. […]
The number of colonies was determined in the hips at 0 and 5 h. […]
Results. The number of colonies was determined at the beginning of administration and 5 hours after administration. […] CFU/ml in the infectious material was determined to be 7.35 log 10, which corresponds to […]. […]

Escherichia coli IMI2001 [3] = assay: Peritonitis/sepsis model in neutropenic NMRI mice, effect over time at 7.5 mg/kg (Example 6); type: in vivo
Method: The objective of this study was to investigate the effectiveness of CPR in vivo after intravenous (iv) administration of a single dose of 7.5 mg/kg. The effect was tested against Escherichia coli IMI2001 in a peritonitis model in neutropenia NMRI mice to avoid the use of mucin, which is commonly used in a mouse peritonitis model. Neutropenia was induced in mice by injection of cyclophosphamide. Administration of meropenem at a dose of 40 mg/kg was included as a positive control group and vehicle administration was included as a negative control group. The number of colonies in peritoneal fluid and blood was determined 2 and 5 hours after administration.
30 female outbred mice NMRI, 2832 grams (Kiev).
Escherichia coli IMI2001 from IMINAMN, Ukraine, Kharkov. Clinical isolate from a human wound from 2013 with multidrug resistance (to ampicillin, ceftazidime, aztreonam, gentamicin, ciprofloxacin).
PPC in Ringer's acetate, pH 6, 1.2 ml, 0.75 mg/ml.
as §1
as §2, with “AID #172” for “IMI2001”, “2.5 h” for “Approximately 0.51 hours”, “administration with significant clinical signs of infection, mice were orally administered” for “the administration,”, “which corresponded” for “corresponding”, “mg/kg)” for “mg/kg) was orally administered to the mice”
Score mice. At each sampling in mice, a clinical assessment of the clinical signs of infection was performed.
The introduction of drugs to mice. The mice were given a single intravenous administration of CPR, meropenem, or excipient into the lateral tail vein for approximately 30 seconds at a time point of 0 h (see Table 6). The dose determination was based on an average body weight of 30 g. Mice with a body weight of 2832 g were injected with 0.30 ml of solution. Mice weighing 2728 g were injected with 0.25 ml of the solution and mice weighing 32.136 g were injected with 0.35 ml of the solution. Mice 17 accidentally injected 0.35 ml, despite the fact that its body weight was 29.5 g.
Fence samples. The number of colonies was determined in blood and peritoneal fluid at 0, 2 and 5 hours after administration according to Table 6.
Mice were anesthetized with CO2+O2 and blood sampling was performed from a section in the axillary region. The mice were sacrificed by cervical dislocation and a total of 2 ml of sterile physiological saline was injected intraperitoneally and a gentle massage of the abdomen was performed, then it was opened and a sample of the fluid was pipetted. Each sample was diluted 10 times in saline and drops of 20 μl were applied to plates with blood agar. All agar plates were incubated for 1822 hours at 35° C. in air.

[4] = test system: multiresistant strains of microorganisms and fungi; assay: Antimicrobial activity in vitro, collection of multiresistant test strains (summary statements); type: cell-based; conditions: resistant fungal strains
[5] = Meropenem 40 mg/kg single iv, T = 5 h, individual mice
[6] = Meropenem 40 mg/kg single iv, T = 5 h, p < 0.01 vs filler
[7] = Meropenem 40 mg/kg single iv, individual mice, score 0-5
[8] = Meropenem 40 mg/kg single iv, 2 h
[9] = Meropenem 40 mg/kg single iv, 5 h
[10] = Meropenem 40 mg/kg single iv, T = 2 h, individual mice

C[C@@H](O)[C@H]1C(=O)N2C(C(=O)O)=C(S[C@@H]3CN[C@H](C(=O)N(C)C)C3)[C@H](C)[C@H]12 [Meropenem, meropenem]
log10 CFU Blood (Escherichia coli IMI2001 [1]; [5]): 2.48 log10 CFU and 1.70 log10 CFU and 2.95 log10 CFU | log10 CFU PF (Escherichia coli IMI2001 [1]; [5]): 3.92 log10 CFU and 1.70 log10 CFU and 2.30 log10 CFU | log10 CFU Average in PF (Escherichia coli IMI2001 [1]; [6]): 2.64 log10 CFU | log10 CFU Blood average (Escherichia coli IMI2001 [1]; Meropenem 40 mg/kg single iv, T = 5 h, p < 0.05 vs filler): 2.38 log10 CFU | Clinical Score T = 5 h (Escherichia coli IMI2001 [1]; [7]): 1 (2×) and 0 | CFU compared with excipient, blood (p<0.05) and peritoneal fluid (p<0.01) (Escherichia coli IMI2001 [1]; meropenem 40 mg/kg iv, 5 h): significant decrease | log10 CFU, hip, The average (Escherichia coli IMI2001 [2]; Meropenem 40 mg/kg single iv, T = 5 h): 4.25 log10 CFU | log10 CFU, hip (Escherichia coli IMI2001 [2]; Meropenem 40 mg/kg single iv, T = 5 h, individual mice, smallest value of group excluded from average): 4.99 log10 CFU and 3.94 log10 CFU | CFU compared with vehicle, hip (Escherichia coli IMI2001 [2]; meropenem 40 mg/kg iv, 5 h): definite but insignificant decrease | Difference in CFU level compared with filler, blood (Escherichia coli IMI2001 [3]; [8]): blood −0.82 log CFU/ml | Difference in CFU level compared with filler, peritoneum (Escherichia coli IMI2001 [3]; [8]): 2 h: peritoneum −1.51 log CFU/ml | Difference in CFU level compared with filler, blood (Escherichia coli IMI2001 [3]; [9]): blood −1.64 log CFU/ml | Difference in CFU level compared with filler, peritoneum (Escherichia coli IMI2001 [3]; [9]): 5 h: peritoneum −1.51 log CFU/ml | log10 CFU Blood (group average) (Escherichia coli IMI2001 [3]; Meropenem 40 mg/kg single iv, T = 2 h): 3.76 log10 CFU | log10 CFU Blood (Escherichia coli IMI2001 [3]; [10]): 3.60 log10 CFU and 3.57 log10 CFU and 4.11 log10 CFU | log10 CFU PF (Escherichia coli IMI2001 [3]; [10]): 4.12 log10 CFU and 3.40 log10 CFU and 4.24 log10 CFU | log10 CFU PF (group average) (Escherichia coli IMI2001 [3]; Meropenem 40 mg/kg single iv, T = 2 h, p < 0.01 vs filler): 3.92 ** log10 CFU | log10 CFU Blood (Escherichia coli IMI2001 [3]; [5]): 3.20 log10 CFU and 2.85 log10 CFU and 3.26 log10 CFU | log10 CFU PF (Escherichia coli IMI2001 [3]; [5]): 4.38 log10 CFU and 4.00 log10 CFU and 4.26 log10 CFU | log10 CFU Blood (group average) (Escherichia coli IMI2001 [3]; [6]): 3.10** log10 CFU | log10 CFU PF (group average) (Escherichia coli IMI2001 [3]; [6]): 4.21 ** log10 CFU | Score T = 2 h (Escherichia coli IMI2001 [3]; [7]): 1 | Score T = 5 h (Escherichia coli IMI2001 [3]; [7]): 0 | significant decrease of CFU compared with filler group (Escherichia coli IMI2001 [3]; meropenem 40 mg/kg, 2 hours after administration): only in the peritoneal fluid | CFU compared with filler group, blood and peritoneal fluid (Escherichia coli IMI2001 [3]; meropenem 40 mg/kg, after 5 hours, p<0.01): significant decrease

C[C@@H]1[C@H](O)[C@@H](C)/C=C/C=C/CC/C=C/C=C/C=C/C=C/C(O[C@H]2O[C@H](C)[C@@H](O)[C@H](N)[C@@H]2O)CC2O[C@](O)(CC(O)C(O)CCC(O)CC(O)CC(O)CC(=O)O[C@H]1C)CC(O)C2C(=O)O (stereo partly drawn) [nystatin]
antifungal activity [4]: did not exert antifungal activity

C[C@@H]1[C@H](O)[C@@H](C)/C=C/C=C/C=C/C=C/C=C/C=C/C=C/[C@H](O[C@@H]2O[C@H](C)[C@@H](O)[C@H](N)[C@@H]2O)C[C@@H]2O[C@](O)(C[C@@H](O)C[C@@H](O)[C@H](O)CC[C@@H](O)C[C@@H](O)CC(=O)O[C@H]1C)C[C@H](O)[C@H]2C(=O)O [amphotericin]
antifungal activity [4]: did not exert antifungal activity

From patent US20210171577A1, “COMBINATORIAL ANTIBIOTIC DERIVATIVES BASED ON SUPRAMOLECULAR STRUCTURES” (priority 2017, published 2021)
